Measurements from ChEMBL document CHEMBL1145225, “Antitumor agents. Part 236: Synthesis of water-soluble colchicine derivatives” (Bioorg Med Chem Lett, 2005).
Values after ≈ are worked out from the molar mass of the structure shown.

Assays:
KB = assay: (§1) In vitro cytotoxic activity against human epidermoid carcinoma of the nasopharynx (KB) tumor cell line; format: functional, cell-based
[1] = In vitro cytotoxic activity against human lung carcinoma (A549) tumor cell line; format: cell-based
[2] = In vitro cytotoxic activity against human ovarian carcinoma (1A9) tumor cell line
[3] = tested on: KB-V (P-gp-expressing MDR KB subclone); assay: Percentage inhibition of multi drug resistant KB subclone growth expressing P-glycoprotein (KB-V) at 4 ug/mL concentration was determined; conditions: for inhibition at 4 µg/mL: Homo sapiens, KB-V
[4] = as §1

Compound	IC50 (KB)	IC50 [1]	IC50 [2]	inhibition at 4 µg/mL [3]	IC50 [4]	Inhibition [3]
COc1cc2c(c(OC)c1OC(=O)CN(C)C)-c1ccc(OC)c(=O)cc1[C@@H](NC(C)=O)CC2	0.09 µg/mL (≈ 0.191 µM)	0.44 µg/mL (≈ 0.935 µM)	0.04 µg/mL (≈ 0.085 µM)	5%	–	–
COc1cc2c(c(OC)c1OC(=O)CN(C)C)-c1ccc(OC)c(=O)cc1[C@@H](NC(C)=O)CC2.O=C(O)C(O)C(O)C(=O)O	–	0.88 µg/mL	0.11 µg/mL	–	0.16 µg/mL	4%
COc1cc2c(c(OC)c1OC(=O)CN(C)C)-c1ccc(SC)c(=O)cc1C(NC(C)=O)CC2.O=C(O)C(O)C(O)C(=O)O (single isomer, unassigned; 5a)	–	0.06 µg/mL	0.01 µg/mL	–	0.02 µg/mL	28%
COc1cc2c(c(OC)c1OC(=O)CN(C)C)-c1ccc(SC)c(=O)cc1C(NC(C)=O)CC2 (single isomer, unassigned; 5)	–	0.05 µg/mL (≈ 0.103 µM)	0.05 µg/mL (≈ 0.103 µM)	45%	0.02 µg/mL (≈ 0.0411 µM)	–
COc1cc2c(c(OC)c1OC)-c1ccc(=O)c(O)cc1[C@@H](NC(C)=O)CC2 [COLCHICEINE]	–	0.002 µg/mL (≈ 0.00519 µM)	0.003 µg/mL (≈ 0.00778 µM)	–	0.003 µg/mL (≈ 0.00778 µM)	–
COc1cc2c(c(OC)c1O)-c1ccc(OC)c(=O)cc1[C@@H](NC(C)=O)CC2 [2-DESMETHYLCOLCHICIN]	–	0.1 µg/mL (≈ 0.259 µM)	0.1 µg/mL (≈ 0.259 µM)	24%	0.1 µg/mL (≈ 0.259 µM)	–
COc1cc2c(c(OC)c1O)-c1ccc(SC)c(=O)cc1[C@@H](NC(C)=O)CC2	–	0.01 µg/mL (≈ 0.0249 µM)	0.01 µg/mL (≈ 0.0249 µM)	56%	0.01 µg/mL (≈ 0.0249 µM)	–
